Assay results: US20160346249A1 (priority 2012, published 2016)
Where two headings read alike, the source gives them in different places.

Assay: Single rising oral dose (10-150 mg IR) safety, tolerance and pharmacokinetics in healthy male volunteers
Assay type: in vivo, human
Details: human, plasma, oral; for MRT inf: read-out: MRT0-∞; for AUC(0-t): read-out: AUC0-t
Excerpt: Fifty (50) healthy male adult volunteers, between the ages of 19 and 43 years (mean±SD: 28±6 years) were enrolled in the study and randomized to the […] different treatments. […] The subjects were divided into panels of 10 subjects/dose group. Seven subjects in each group received the test drug, while three received an identical-looking placebo. […] The five treatments are outlined below:
The subjects were admitted to the clinic the night before dose administration and fasted from approximately 10 hour before to 4 hour after ingestion of the study capsules. Treatments were administered with 240 mL of mineral water between 08:00 and 09:00 hours. […] The assay calibration range was 5 to 2,000 ng/mL.
The values of Cmax and Tmax were the observed value for each subject. The terminal elimination rate constant λz was derived from the log-linear disposition phase of the concentration-time curve using linear least-squares regression for which the program determined the appropriate number of terminal points to calculate λz. At least three terminal plasma concentrations were used for estimating λz. The t1/2 (HL_Lambda_z) was calculated as ln 2/λz. AUC0-t and AUMC0-t were determined using the linear trapezoidal rule for each increasing concentration and the log-trapezoidal rule for descending concentrations. The AUC values from the last quantifiable time point to infinity was calculated as Ct/λz. This value was added to AUC0-t to obtain AUC0-∞. […] Oral clearance was calculated as Dose/AUC0-∞. The 90% confidence intervals were calculated for all of the variables.
SAS, version 8.2, was used for the analysis.

In the case of Clc1ccc([C@]23CNC[C@H]2C3)cc1Cl [amitifadine, (+)-1-(3,4-dichlorophenyl)-3-azabicyclo[3.1.0]hexane], the half-life (10 mg, individual subject, read-out: t1/2 (converted)) is reported as 3.47 h, the MRT inf (25 mg, individual subject) is reported as 4.81 h and the AUC(0-inf) (50 mg, individual subject) is reported as 1690 ng·h/mL. The MRT inf (50 mg, individual subject) was 5.18 h, the half-life (50 mg, individual subject, read-out: t1/2 (converted)) was 3.25 h and the AUC(0-inf) (100 mg, individual subject) was 5010 ng·h/mL. The AUC(0-t) (100 mg, individual subject) was 4960 ng·h/mL, the MRT inf (100 mg, individual subject) was 4.92 h and the half-life (100 mg, individual subject, read-out: t1/2 (converted)) was 3.94 h. It also gave an AUC(0-inf) (150 mg, individual subject) of 7300 ng·h/mL, an AUC(0-t) (150 mg, individual subject) of 7210 ng·h/mL and an MRT inf (150 mg, individual subject) of 5.67 h. The AUC(0-inf) (male, 10 mg, Geometric Mean) was 418 ng·h/mL, the AUC(0-t) (male, 10 mg, Geometric Mean) was 377 ng·h/mL and the MRT inf (male, 10 mg, Geometric Mean) was 5.21 h. For the same compound, the Tmax (male, 10 mg, Geometric Mean, read-out: Tmax) was 0.696 h, the half-life (male, 10 mg, Geometric Mean, read-out: t1/2 (converted)) was 3.4 h and the AUC(0-inf) (male, 10 mg, Mean (n = 7)) was 429 ng·h/mL. The AUC(0-t) (male, 10 mg, Mean (n = 7)) was 387 ng·h/mL, the MRT inf (male, 10 mg, Mean (n = 7)) was 5.23 h and the half-life (male, 10 mg, Mean (n = 7), read-out: t1/2 (converted)) was 3.42 h. The AUC(0-inf) (male, 10 mg, Median) was 454 ng·h/mL, the AUC(0-t) (male, 10 mg, Median) was 409 ng·h/mL and the MRT inf (male, 10 mg, Median) was 5.35 h. The half-life (male, 10 mg, Median, read-out: t1/2 (converted)) was 3.47 h, the AUC(0-inf) (male, 25 mg, Geometric Mean) was 1430 ng·h/mL and the AUC(0-t) (male, 25 mg, Geometric Mean) was 1340 ng·h/mL. The MRT inf (male, 25 mg, Geometric Mean) was 4.79 h, the Tmax (male, 25 mg, Geometric Mean, read-out: Tmax) was 0.863 h and the half-life (male, 25 mg, Geometric Mean, read-out: t1/2 (converted)) was 2.97 h. It also gave an AUC(0-inf) (male, 25 mg, Mean (n = 7)) of 1470 ng·h/mL, an AUC(0-t) (male, 25 mg, Mean (n = 7)) of 1390 ng·h/mL and an MRT inf (male, 25 mg, Mean (n = 7)) of 4.83 h. It also gave a half-life (male, 25 mg, Mean (n = 7), read-out: t1/2 (converted)) of 3.15 h, an AUC(0-inf) (male, 25 mg, Median) of 1300 ng·h/mL and an AUC(0-t) (male, 25 mg, Median) of 1190 ng·h/mL. The MRT inf (male, 25 mg, Median) was 4.65 h, the half-life (male, 25 mg, Median, read-out: t1/2 (converted)) was 3 h and the AUC(0-inf) (male, 50 mg, Geometric Mean) was 2420 ng·h/mL. The AUC(0-t) (male, 50 mg, Geometric Mean) was 2320 ng·h/mL, the MRT inf (male, 50 mg, Geometric Mean) was 5.23 h and the Tmax (male, 50 mg, Geometric Mean, read-out: Tmax) was 1.02 h. For the same compound, the half-life (male, 50 mg, Geometric Mean, read-out: t1/2 (converted)) was 3.65 h, the AUC(0-inf) (male, 50 mg, Mean (n = 7)) was 2490 ng·h/mL and the AUC(0-t) (male, 50 mg, Mean (n = 7)) was 2390 ng·h/mL. For the same compound, the MRT inf (male, 50 mg, Mean (n = 7)) was 5.25 h, the half-life (male, 50 mg, Mean (n = 7), read-out: t1/2 (converted)) was 3.68 h and the AUC(0-inf) (male, 50 mg, Median) was 2200 ng·h/mL. The AUC(0-t) (male, 50 mg, Median) was 2120 ng·h/mL, the MRT inf (male, 50 mg, Median) was 5.29 h and the Tmax (male, 50 mg, Median, read-out: Tmax) was 1 h. The half-life (male, 50 mg, Median, read-out: t1/2 (converted)) was 3.62 h, the AUC(0-inf) (male, 100 mg, Geometric Mean) was 4850 ng·h/mL and the AUC(0-t) (male, 100 mg, Geometric Mean) was 4780 ng·h/mL. The MRT inf (male, 100 mg, Geometric Mean) was 5.7 h, the half-life (male, 100 mg, Geometric Mean, read-out: t1/2 (converted)) was 4.15 h and the AUC(0-inf) (male, 100 mg, Mean (n = 7)) was 4880 ng·h/mL. The AUC(0-t) (male, 100 mg, Mean (n = 7)) was 4810 ng·h/mL, the MRT inf (male, 100 mg, Mean (n = 7)) was 5.75 h and the half-life (male, 100 mg, Mean (n = 7), read-out: t1/2 (converted)) was 4.15 h. It also gave an AUC(0-inf) (male, 100 mg, Median) of 4820 ng·h/mL, an AUC(0-t) (male, 100 mg, Median) of 4730 ng·h/mL and an MRT inf (male, 100 mg, Median) of 5.69 h. For the same compound, the half-life (male, 100 mg, Median, read-out: t1/2 (converted)) was 4.22 h, the AUC(0-inf) (male, 150 mg, Geometric Mean) was 8490 ng·h/mL and the AUC(0-t) (male, 150 mg, Geometric Mean) was 8360 ng·h/mL. It also gave an MRT inf (male, 150 mg, Geometric Mean) of 5.97 h, a Tmax (male, 150 mg, Geometric Mean, read-out: Tmax) of 1.63 h and a half-life (male, 150 mg, Geometric Mean, read-out: t1/2 (converted)) of 3.64 h. The AUC(0-inf) (male, 150 mg, Mean (n = 7)) was 8620 ng·h/mL, the AUC(0-t) (male, 150 mg, Mean (n = 7)) was 8510 ng·h/mL and the MRT inf (male, 150 mg, Mean (n = 7)) was 6.04 h. It also gave a half-life (male, 150 mg, Mean (n = 7), read-out: t1/2 (converted)) of 3.71 h, an AUC(0-inf) (male, 150 mg, Median) of 8010 ng·h/mL and an AUC(0-t) (male, 150 mg, Median) of 7940 ng·h/mL. For the same compound, the MRT inf (male, 150 mg, Median) was 5.87 h, the half-life (male, 150 mg, Median, read-out: t1/2 (converted)) was 3.68 h and the half-life (male, 10 to 150 mg, read-out: elimination half-life) was 3 to 4 h. For the same compound, the Tmax (male, 10 to 150 mg, read-out: mean Tmax) was 0.7 to 1.75 h and the MRT (male, 10 to 150 mg, read-out: mean residence time) was 5 to 6 h.
